According to US11564913B2, “Compositions and methods for treating cancer” (Children's Hospital Medical Center, priority 2019, dated 2023):

Key:
[1] = tested on: murine colon adenocarcinoma MC38 tumors; experiment: MC38 colon adenocarcinoma mouse model; assay type: in vivo, mice
Method: FIG. 21: NIRA2 inhibits tumor growth of murine colon adenocarcinoma xenografts. […] Animals began treatment with vehicle, IODVA1, or NIRA2 (N=10 per group) when tumors reached 100-200 mm^3 in volume (day 12 post-injection) and received treatment 5 times per week for two weeks. Representative pictures of the spleens and extracted tumors are shown.
The in vivo efficacy of NIRA2 was tested against a xenograft mouse model generated with the murine colon adenocarcinoma MC38 cells. Cells were injected subcutaneously in the flank of a hind leg. Each injection contained one million cells of Matrigel+MC38 in a volume of […]. Tumors were calipered until an average size of 100-200 mm^3 is reached. Animals were sorted in into treatment groups (N=10) and administered (5× a week) by IP 250 μL of a PBS solution containing vehicle control, IODVA1 (1 mM), or NIRA2 (0.5 mM). Treatments lasted 2 weeks Animals were euthanized as tumor size reached 2 cm^3 or at the end of the study. Tumors were measured daily and mice weighed 3 times a week.

recombinant Vav3 = molecular target: T1, recombinant Vav3 (Homo sapiens, UniProt Q9UKW4); experiment: Microscale thermophoresis (MST) binding; conditions: one molecule of IODVA1 binds, read-out: binding affinity (Kd)
T1 construct: His6; made in house; host or cells: E. coli BL21 (DE3) or T7 Express, co-expressed with groEL-groES
Method: FIG. 14: IODVA1 targets Vav3 in vitro and in vivo. (A) Ba/F3 cells expressing empty vector Mieg3 or p190-BCR-ABL1 were treated with vehicle control or IODVA1 (IO1, 3 μM) for 30 min and incubated with GST-Rac and glutathione beads. Beads were washed and the protein complexes were separated on SDS-PAGE and immunoblotted for pVav3. Input Vav3 was used as control. (B) Binding affinity (Kd) between IODVA1 and Vav3 (green), LARG (brown), and RacGDP (blue). […] Error bars=SD; N=3. (C) Quantification of the average number of colonies made by bone marrow wild-type (black) and Vav3^−/− (lilac) p190-BCR-ABL1 leukemic cells treated with vehicle control or IODVA1 (IO1, 1 and 3 μM) (* p≤0.05; ** p≤0.01; *** p≤0.001; ns, not significant). (D) Representative histogram data of the cell cycle analysis of wild-type (black and grey bars) and Vav3^−/− (dark and light lilac) bone marrow cells expressing p190-BCR-ABL and treated with vehicle control or IODVA1 (IO1, 3 μM) for 20 h. (E) Quantification by densitometry of the pVav3 band from FIG. 14A. […]
To test this hypothesis, we measured its binding affinity (Kd) to recombinant Vav3 and Rac1 using microscale thermophoresis (MST); the catalytic domain (DH/PH) of the RhoGEF LARG served as negative control. […] Second, like Vav3, LARG contains a DH/PH domain responsible for the exchange activity such that any non-specific binding to this domain should be detected. […]

T1 sequence (Q9UKW4 whole entry, species assumed): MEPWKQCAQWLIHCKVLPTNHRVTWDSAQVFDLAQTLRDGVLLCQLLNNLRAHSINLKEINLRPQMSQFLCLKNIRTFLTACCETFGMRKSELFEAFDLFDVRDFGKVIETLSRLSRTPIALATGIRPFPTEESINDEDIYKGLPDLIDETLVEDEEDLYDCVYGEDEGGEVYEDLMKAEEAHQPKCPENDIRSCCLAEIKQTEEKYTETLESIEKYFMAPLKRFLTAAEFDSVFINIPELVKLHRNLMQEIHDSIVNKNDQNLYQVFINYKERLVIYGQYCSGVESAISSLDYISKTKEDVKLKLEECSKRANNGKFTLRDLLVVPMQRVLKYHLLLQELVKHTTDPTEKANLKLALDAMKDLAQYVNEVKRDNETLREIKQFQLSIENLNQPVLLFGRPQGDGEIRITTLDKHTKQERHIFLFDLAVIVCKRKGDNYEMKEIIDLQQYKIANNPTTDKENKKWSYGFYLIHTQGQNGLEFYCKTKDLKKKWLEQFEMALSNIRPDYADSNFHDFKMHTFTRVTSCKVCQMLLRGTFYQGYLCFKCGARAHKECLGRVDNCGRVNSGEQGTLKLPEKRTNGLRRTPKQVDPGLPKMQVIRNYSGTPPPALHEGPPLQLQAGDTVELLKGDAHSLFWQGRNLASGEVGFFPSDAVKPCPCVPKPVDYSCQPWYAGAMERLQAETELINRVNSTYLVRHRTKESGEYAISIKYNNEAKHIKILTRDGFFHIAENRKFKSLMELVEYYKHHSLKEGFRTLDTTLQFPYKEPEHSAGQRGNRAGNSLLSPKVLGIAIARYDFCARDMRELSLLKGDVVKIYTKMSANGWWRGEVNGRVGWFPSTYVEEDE

OC1(c2ccccn2)N=C(Nc2nc3ccccc3[nH]2)N=C1c1ccccn1 (stereo not drawn) [IODVA1, (Z)-2-((1H-benzo[d]imidazol-2-yl)imino)-4,5-di(pyridin-2-yl)-2,5-dihydro-1H-imidazol-5-ol]
tumor growth and tumor volumes ([1]; IP 250 μL of 1 mM, 5× a week, 2 weeks): significantly reduced
effect on spleen ([1]; end of the study): did not notice any effect
Kd (recombinant Vav3): 512 nM
